Data from patent US20230381237A1, “CHIMERIC ANTIGEN RECEPTOR (CAR) T-CELL ADJUVANT THERAPIES” (priority 2022, published 2023).
“Also recorded” adds a separate entry of the source.

Experiments:
[1] = test system: PBMCs activated through TLR-3; experiment: TNFα production in Poly r(I:C)-activated PBMCs (sandwich ELISA); conditions: 0.3 nM to 750 nM
influenza (H1N1) = experiment: In vivo lethal influenza H1N1 studies, cytokine levels; design: species or system mice
[2] = test system: CD19 CAR T-cells co-cultured with CD19+Raji lymphoma target cells; experiment: CD19 CAR T-cell / Raji co-culture, pro-inflammatory cytokine levels; assay type: cell-based, human
CD19+Raji tumor cells = experiment: CD19 CAR T-cell killing of Raji target cells (flow cytometry, 7-AAD); assay type: cell-based, human; conditions: in vitro; Effector:Target 10:1, 5:1, 1:1; all concentrations; monosodium salt
Raji-luc tumor cells = experiment: CAR T-cell efficacy in NSG tumor bearing mice; assay type: in vivo
Method: Human T-cells expressing CD19-CD28-CD3Z CAR construct was used in this experiment.
6-7 week old NSG™ (NOD SCID gamma) mice were engrafted with 1×10^6 luciferase (luc) expressing Raji tumor cells (herein referred to as “Raji-luc” tumor cells) each on Day 1 to allow for tumor growth over a 7-day period prior to the commencement of the treatment. CAR T-cell infusion was performed intravenously via lateral tail vein on (5×10^6 CD19 CAR T-cells generated from healthy donors). NSG mice are severely immunodeficient, which facilitates ready tumor engraftment and subsequent clearance due to CAR T-cells can be measured.
Tumor growth after engraftment and subsequent clearance were monitored once weekly (starting on Day 7) using IVIS imaging to detect luciferase signal in living mice. […] CTO1681 doses were selected based on the pharmacokinetic profile of the drug in mice. Control groups included mice receiving Raji-luc tumor cells without CAR T-cell treatment, mice receiving Raji-luc tumor cells and a CAR T-cell infusion, and mice receiving Raji-luc tumor cells with vehicle treatments. Mice were monitored for body temperature and health evaluations (weight, movement, posture, fur condition, etc.) throughout the entire study.

[3] = Pharmacokinetics in African Green Monkeys, TID oral gavage; assay type: in vivo
Method: (§1) Individual Animal Metrics—Nine African green monkeys (approximately 16 years old, wild-caught) were used in this PK study. Per requirements of the CDC, all animals were quarantined at a CDC facility for 30 days followed by a 90-day quarantine/acclimation period at TNPRC prior to study initiation. Animals were dosed three times daily (TID) by oral gavage in three separate rounds of the study (ascending dose concentrations). Individual animal weights were tracked throughout the entirety of the study. On average, weights decreased 5.5% across all cohorts, with no individual animal losing more than 8.7% of its initial body weight over the course of the study. No difference in mean weight change is observed between male and female monkeys. […] Ultimately, the animals handled the schedule well, all remaining in good health with a weight loss of no more than what was expected by the veterinary staff with the schedule intensity.
Individual animal profiles were evaluated following each dose on a single day of dosing. Single day TID doses were administered using the same animals following a minimum of 7 days wash out between increasing dose level rounds, where Round 1 was TID 0.008 mg/kg/day (0.00267 mg/kg/dose), Round 2 was TID 0.04 mg/kg/day (0.0133 mg/kg/dose), and Round 3 was TID 0.2 mg/kg/day (0.0667 mg/kg/dose). Wash out (negative) plasma levels of CTO1681 between dose rounds were confirmed. […] Samples were collected at the following target timepoints relative to the first TID dose of the day: 0.25, 0.5, 1, 2, 4, and 8 hours (prior to second daily dose), 8.25, 8.5, 9, 10, 12, and 16 hours (prior to third daily dose), 16.25, 16.5, 17, 18, 20, 24, 28 and 40 hours after TID test item administration by oral gavage dosing, with the three daily doses administered at 0, 8 and 16 h in 9 animals, staggered for n=3 collection after administration of each daily dose. […]

[4] = Body weight and tolerability in African green monkey PK study; assay type: in vivo, African green monkeys
Method: as §1

[5] = Single dose PK study in BALB/C mice; assay type: in vivo, murine (BALB/C)
[6] = BID dose PK study in NSG mice (CAS-2201); assay type: in vivo, murine (NSG)
[7] = test system: circulating cytokines (TNFα); experiment: Serum cytokine measurements after CTO1681 treatment in African Green Monkeys; assay type: in vivo; conditions: highest dose of CTO1681 compared to the other two cohorts
Excerpt: Longitudinal serum samples were taken through the course of the observation period. At the end of all three cohorts serum samples were utilized to determine circulating concentrations of 12 different cytokines. Representative data is pictured below for TNFα, a key central cytokine in CRS (FIG. 6). […] Overall there appears to be a dose-dependent trend to cytokine reduction.

Food effect = assay type: in vivo; conditions: oral tablets
[8] = Example 3: human treatment with no delay period; assay type: in vivo; conditions: B-cell lymphoma, daily for 7-15 days
Excerpt: Both groups will receive infusion of CAR T-cells. […] Clinical signs of CRS and cytokines will be monitored daily for both groups.

[9] = Example 4: treatment with predetermined delay period; assay type: in vivo, human; conditions: mantle cell lymphoma; start three days after CAR T-cells, eleven days
Excerpt: Both groups will receive infusion of CAR T-cells. […] Cytokines will be monitored daily for both groups.

[10] = Example 5: treatment with monitored delay period; assay type: in vivo, human; conditions: acute myeloid leukemia; start upon cytokine increase, ten days
Excerpt: Both groups will receive infusion of CAR T-cells. Cytokines will be monitored daily for both groups. […] Treatment with CTO1681 will continue daily for ten days.

influenza (H5N1) = conditions: in vivo; cited from earlier work
[11] = Example 2: mouse model of CAR T-cell therapy induced CRS; conditions: IP, BID for 7 days
[12] = Phase 1 multiple ascending, repeat-dosing study in healthy volunteers
TNF-α = conditions: patients with diabetes; doses within dose equivalencies of CTO1681 MAD study; cited from earlier work
[13] = CytoAgents in vivo influenza (H1N1) studies
[14] = 10:1 ratio of Effectors to Target cells, CTO1681 0.36-225 nM, 24 hours

CC#CCC(C)[C@H](O)/C=C/[C@@H]1[C@H]2c3cccc(CCCC(=O)O)c3O[C@H]2C[C@H]1O (some centres unmarked) [Beraprost, reference compound]
EC50 ([1]; PBMC, Replicate 1): 17.1 nM | EC50 ([1]; PBMC, Replicate 2): 8.64 nM | EC50 ([1]; PBMC, Replicate 3): 17.1 nM

CC#CC[C@H](C)[C@H](O)/C=C/[C@@H]1[C@H]2c3cccc(CCCC(=O)[O-])c3O[C@H]2C[C@H]1O.[Na+] [CTO1681, (+)-[1R, 2R, 3aS, 8bS]-2,3,3a,8b-tetrahydro-2-hydroxy-1-[(E)-(3S,4S)-3-hydroxy-4-methyl-1-octen-6-ynyl)-1Hcyclopenta[b]benzofuran-5-butanoic acid, monosodium salt]
IL-2 level (influenza (H1N1); [13]): reduced | IL-6 level (influenza (H1N1); [13]): reduced | IL-10 level (influenza (H1N1); [13]): reduced | IFN-α concentrations (influenza (H1N1); lethal H1N1 influenza infections): no significant repression | Maximum reduction of IFN-γ [2, 14]: ~26% | Maximum reduction of TL-6 [2, 14]: ~23% | Maximum reduction of TNF-α [2, 14]: approximately 50% | Levels of IL-6 ([2]; CAR T-cells and Raji cells at a 10:1 ratio (FIG. 1A)): dose-dependently lowers | Levels of TNF-α ([2]; CAR T-cells and Raji cells at a 10:1 ratio (FIG. 1B)): dose-dependently lowers | Levels of IFN-γ ([2]; CAR T-cells and Raji cells at a 10:1 ratio (FIG. 1C)): dose-dependently lowers | Effect on tumor/target cell killing of CD19-directed CAR T-cells (CD19+Raji tumor cells): absence of an effect; also recorded: did not impact or interfere | Effect on CD19 CAR T-cell activity (reduction of lymphoma tumor burden) (Raji-luc tumor cells; 0.3, 0.2 or 0.15 mg/kg/d BID for 14 days, Day 15, monosodium salt): does not interfere; also recorded: did not affect | Clinical morbidities, including weight loss or limb movement (Raji-luc tumor cells; NSG mice, with CAR T-cell therapy): did not cause any increase | Tmax ([3]; round 1, 0.008 mg/kg/day TID oral): 1.5 h | Tmax ([3]; round 2, 0.04 mg/kg/day TID oral): 2.0 h | Tmax ([3]; round 3, 0.2 mg/kg/day TID oral): 2.1 h | Tolerability / toxicities or negative health effects ([4]; TID oral administration, 0.008-0.2 mg/kg/day, monosodium salt): overall tolerable; also recorded: no toxicities or negative health effects | Average weight decrease across all cohorts ([4]; entire study): 5.5% | Largest individual loss of initial body weight ([4]; entire study): ≤ 8.7% | T1/2 [5]: 1 to 2 h | Elimination half-life ([6]; calculated using first daily dose, range of 6-12 h (Rsq=0.40)): 1.8 h | T1/2 of BID exposure ([6]; two times a day (BID) dose): approximately 5 hours | Cytokine levels in serum (TNFα representative) [7]: remarkable and consistent reduction | Food effect (Food effect): positive food effect | CRS symptoms vs control group [8]: reduced CRS symptoms | Undesired cytokine production vs control group [8]: lower undesired cytokine production | CRS symptoms vs control group [9]: reduced CRS symptoms | Undesired cytokine production vs control group [9]: lower undesired cytokine production | CRS symptoms vs control group [10]: reduced CRS symptoms | Undesired cytokine production vs control group [10]: lower undesired cytokine production | IL-2 level (influenza (H5N1)): reduced | IL-6 level (influenza (H5N1)): reduced | IL-8 level (influenza (H5N1)): reduced | IL-10 level (influenza (H5N1)): reduced | Comparison with dexamethasone [11]: superior to dexamethasone | Survival benefits over dexamethasone [11]: greater survival benefits | EC50 ([1]; Replicate 1): 5.7 nM | EC50 ([1]; Replicate 2): 4.14 nM | EC50 ([1]; Replicate 3): 1.95 nM | Cytokine levels (panel of 27 cytokines) [12]: no clinically significant decreases | SAEs, TEAEs of special interest, TEAEs leading to study discontinuation or dose reduction ([12]; 15 to 60 μg/day, 7 days): No SAEs | Treatment-emergent AEs, mild ([12]; 15 to 60 μg/day, 7 days): 62 AEs | Treatment-emergent AEs, moderate ([12]; 15 to 60 μg/day, 7 days): 4 AEs

CC#CCC(C)C(O)C=CC1C(O)CC2Oc3c(CCCC(=O)[O-])cccc3C21.[Na+] (centres unmarked) [beraprost sodium, 2,3,3a,8b-tetrahydro-2-hydroxyl-1-(3-hydroxyl-4-methyl-1-octen-6-ynyl)-1H-cyclopenta[b]benzofuran-5-butanoic acid, sodium salt]
TNF-α (TNF-α): significant reductions
